In the assay the test system is Human MGC4172 (short-chain dehydrogenase/reductase, DHRS11). Put plainly: DHRS11 SDR ligand binding via Tm shift – biophysical, DSF, SYPRO orange, recombinant human protein (AID 507). As to conditions: DSF SYPRO orange thermal shift, at 100 µM, protein 2 µM, buffer 10 mM HEPES, pH 7.5, NaCl 150 mM, NADPH 200 µM, active compounds read high.

On to `CN(CCOc1ccc(CC2SC(=O)NC2=O)cc1)c1ccccn1` (stereo unspecified), for which the Tm shift is 2.3 Celsius.

The record behind these values is PubChem BioAssay AID507.
